Data on eight compounds can be found in patent US8686051B2, “Pharmaceutical composition for treatment of diabetic complications” (VLife Sciences Technologies Pvt. Ltd., priority 2007, dated 2014).

Where a name gives a salt, the structure may show the parent alone.

In test [1] the target is T1, purified human recombinant aldose reductase (Homo sapiens, UniProt P15121).
T1 construct: made in house; host or cells: E. coli
Briefly: Aldose reductase (AR) inhibition, spectrophotometric NADPH oxidation assay. In kind it is biochemical. The settings on record: for IC50: read-out: Aldose reductase inhibitory IC50. From the text: For enzyme inhibition studies, purified human recombinant aldose reductase (expressed in E. coli) was used for testing the aldose reductase (AR) inhibitory activity of beta adrenergic antagonists by a spectrophotometric method, using glyceraldehydes as substrate, (Mol. Vis. 2004, 10, 148-154). Recombinant human aldose reductase was purified from bacterial cultures. Enzyme from expression cultures was extracted and purified essentially as described previously (J Biol Chem 1992; 267: 24833-40) with the exception that affinity chromatography over AffiGel Blue (Bio-Rad) was used as a final purification step. AR activity was assayed according to the method described by Hayman and Kinoshita (J Biol Chem 1965; 240: 877-82). The assay mixture in 1 ml contained 50 μM potassium phosphate buffer pH 6.2, 0.4 mM lithium sulfate, 5 μM 2-mercaptoethanol, 10 μM DL-glyceraldehyde, 0.1 μM NADPH, and enzyme preparation (rat lens or recombinant enzyme). Appropriate blanks were employed for corrections. The assay mixture was incubated at 37° C. and initiated by the addition of NADPH at 37° C. The change in the absorbance at 340 nm due to NADPH oxidation was followed in a Cary Bio 100 spectrophotometer. For inhibition studies concentrated stocks of the Beta adrenergic antagonists, timolol, esmolol, sotalol, nebivolol, carvedilol, metoprolol and labetalol were prepared in water. Various concentrations of Beta adrenergic antagonists, as test compounds, were added to the assay mixture and incubated for 5-10 minutes before initiating the reaction by NADPH as described above. The percent of inhibition with test compounds was calculated considering the AR activity in the absence of inhibitor was 100%. The concentration of each test sample giving 50% inhibition (IC50) was then estimated.

The subject of test [2] is formation of sorbitol in red blood cells (RBC). Briefly: Estimation of sorbitol in red blood cells incubated with 30 mM glucose. In kind it is cell-based. As for the experimental part: The cells were incubated with 30 mM glucose in vitro. Sorbitol was estimated by the method of reported by Malone, et al. Diabetes; 1980; 29: 861-864.
Test [3] has as its system wound on dorsal skin of diabetic Wistar rats. Kind of test: Diabetic wound healing in streptozocin-diabetic rats, topical treatment. The settings on record: for Wound diameter: diabetic rats, topical. The class given is in vivo. As to the method: Wistar rats were kept in standard autoclaved rodent cages with ad libitum food (Harland Tekland Irradiated Rodent Diet) and autoclaved water. The rats were housed on Harlan Tek-chip pelleted paper in static micro isolators maintained at 72° F., 60% humidity, and a 12 hour light cycle. The animals were kept at the facility for 10 days to get accustomed to the environment, after the arrival from the vendor. Diabetes was induced in the rats by intraperitoneal injection of 50 mg/kg body weight of streptozocin on 5 consecutive days. The wound was created on the rat by using a contortive scratcher to make a 2 mm incision with 0.57-0.62 mm depth on the dorsal skin of the animal. The area was shaved and sanitized with normal lugol's iodine prior to use of the scratcher.
Esmolol hydrochloride (10%) was administered three times daily or the standard treatment control, by smearing the agent directly onto the wound. The positive control used was platelet derived growth factor that is commercially available. The treatment was continued until the wounds of the treated mice were completely healed. […]
Several wound healing parameters were measured on the day 3, day 7, day 12 and day 19 of the creation of the wound. These parameters are reported in separate tables below. The wound size and weight of the rats was measured every alternate day. Specifically, the length and width of the wound were measured by use of micro vernier calipers, and the tensile strength at the edge of the wound was also recorded every other day. The wound diameter was measured by the same investigator on day 3, 12, 19 by the use of an electronic digital vernier caliper (B&D, Pomanus, N.J.). The caliper was calibrated just before the measurement by adjusting the zero error. […]
The area for evaluation was cut clean by an Eppendorf 10 size scalpel and the tissue was preserved in 10% of phosphate buffered formalin solution. The tissues were removed from this formalin solution and immersed in 100% of ethanol for 6 hours. The tissue were again removed and preserved for evaluation in 10% Bouins solution. […]
The quantity of exudation from wound was measured by the use of a micropipette (Eppendorf). […]
The adherence is the strength by which the two ends of the wound are attached together and measured by a Velcro index meter.
Fluid accumulation was measured by volume of fluid obtained from wound using micro pipette as described in Table 8. […]

Test [4] concerns nitric oxide (nitrate/nitrite). Briefly: Measurement of nitric oxide (nitrite/nitrate) in tissue by chemiluminescence. In kind it is in vivo, rat. The settings on record: total versus controls. As for the experimental part:
Fresh tissue (approximately 0.2 g) was added to 1 ml cold homogenizing buffer (20 mmol/l HEPES-KOH, pH 7.9; 25% glycerol; 420 mmol/l NaCl; 1.5 mmol/l MgCl2; 0.2 mmol/l EDTA; 0.5 mmol/l dithiothreitol; 0.2 mmol/l phenylmethylsulphonyl fluoride). The buffered tissues were homogenized at maximum speed for 5 seconds and cooled in ice-water for 30 seconds. This procedure was repeated five times to ensure complete tissue destruction.
Two volumes of 100% cold ethanol were added to the homogenized samples; these were vortexed and incubated on ice for 30 minutes. The homogenate was centrifuged at 12,000×g for 5 minutes at 4° C., and the supernatant transferred to a new tube on ice for NO measurement.
A rapid-response chemiluminescence analyzer was used to measure total gas phase NO (nitrate/nitrite). NO gas reacts with ozone, producing energy in the form of light, and the light is proportional to the quantity of NO present. The emission was measured using a luminometer to determine NO concentration.
The sample tube was securely connected to a Zero Gas Filter (Sievers Instruments) and room air passed through the device for 5 minutes. […] The sample gas was then exposed to the ozone in the reaction vessel to form activated nitrogen dioxide (NO2), which was detected using a red-sensitive photomultiplier tube, and the output recorded using an integrating pen recorder. […]

The test system of test [5] is collagen (hydroxyproline). Briefly: Measurement of collagen (tissue hydroxyproline by HPLC). In kind it is in vivo, rat. More on the design: Collagen production: unit not given here. The text has this: The synthesis of the 19 known collagens occurs within the cell, as it does for other proteins. The collagen molecule is characterized by the repeating sequence Gly-X-Y, with X often being proline and Y often being hydroxyproline. Hydroxyproline is the end product of collagen breakdown. For this reason, tissue hydroxyproline level is an indirect and objective variable of tissue collagen production. In many experimental studies, hydroxyproline has been used to assess tissue collagen production.
Collagen levels in the tissue were measured by use of high performance liquid chromatography (HPLC) for separating and quantitating the levels of hydroxyproline from the rat tissue. A reverse-phase Nova-Pak C18 column and solvent system (140 mM sodium acetate, 0.05% triethylamine (TEA), 6% acetonitrile) were used, resulting in complete separation of hydroxyproline. Recovery of standards ranged from 89 to 103% and intra-assay variability was <8%. Additionally, [^3H]hydroxyproline measurements were used to examine changes in collagen turnover in the rat labeled with [^3H]proline and “chased” in the presence of 10 mM unlabeled proline.

Take `OC(CNCC(O)C1CCc2cc(F)ccc2O1)C1CCc2cc(F)ccc2O1` (centres unmarked) [Nebivolol, nebivolol hydrochloride]: the concentration for half-maximal inhibition (IC50) (in general, the concentration that gives 50% inhibition) in test [1] was greater than 350 µM.
For the compound `CC(C)NCC(O)COc1cccc2ccccc12.Cl` (centres unmarked) [Propranolol, propranolol hydrochloride], in test [1], the “aldose reductase inhibition (in words)” value was “effective aldose reductase inhibition” and the IC50 was 350 µM. The “Sorbitol concentration in RBC” value in test [2] (RBC under 30 mM glucose + 350 μM of propranolol) was 18.25 µg/mL.
Turning to `COC(=O)CCc1ccc(OCC(O)CNC(C)C)cc1` (centres unmarked) [Esmolol, esmolol hydrochloride], in test [3] (Day 3), the “Ease of removal from wounds” value is given as 2.6 +/− 0.2, the “Evaluation of biopsy wounds in diabetic rats” value (“Evaluation of biopsy wounds” below) was 1.3 +/− 0.3, the Exudation is 1.2 ± 0.2 µL and the Film transparency is given as 1.7 +/− 0.3. Besides, in test [3] (Day 3), the Flexibility was 2.3 +/− 0.2, the Fluid accumulation was 2.3 +/− 0.4, the Wound adherence is on record as 2.6 +/− 0.4 and the “Wound diameter: degree of contraction” value is given as 12.17 +/− 5.8%. Also, the Wound diameter in test [3] (Day 3) is on record as 1.28 +/− 0.12 MM. For the same compound, in test [3] (Day 7), the “Ease of removal from wounds” value is listed as 2.8 +/− 0.3, the “Evaluation of biopsy wounds” value is on record as 1.3 +/− 0.2, the Exudation was determined as 2.7 ± 0.5 µL and the Film transparency is 2.3 +/− 0.4. In addition, in test [3] (Day 7), the Flexibility is recorded as 2.4 +/− 0.5, the Fluid accumulation is reported as 2.7 +/− 0.5 and the Wound adherence is 3.3 +/− 0.3. Also, in test [3] (Day 12), the “Ease of removal from wounds” value is recorded as 2.7 +/− 0.5, the “Evaluation of biopsy wounds” value is reported as 1.4 +/− 0.3, the Exudation amounted to 3.5 ± 0.6 µL and the Film transparency is reported as 2.6 +/− 0.6. In test [3] (Day 12), the Flexibility was 3.5 +/− 0.6, the Fluid accumulation was 2.6 +/− 0.7, the Wound adherence was 3.9 +/− 0.5 and the “Wound diameter: degree of contraction” value was 41.86 +/− 13.2%. Moreover, the Wound diameter in test [3] (Day 12) is given as 1.37 +/− 0.17 MM. Besides, in test [3] (Day 19), the “Ease of removal from wounds” value is listed as 2.5 +/− 0.4, the “Evaluation of biopsy wounds” value was 1.5 +/− 0.3, the Exudation was 4.9 ± 0.2 µL and the Film transparency is recorded as 3.3 +/− 0.4. Moreover, in test [3] (Day 19), the Flexibility is given as 3.9 +/− 0.8, the Fluid accumulation is 2.5 +/− 0.5, the Wound adherence was 4.7 +/− 0.5 and the “Wound diameter: degree of contraction” value is 98.64 +/− 9.6%. Moreover, the Wound diameter in test [3] (Day 19) is listed as 0.79 +/− 0.28 MM. For the same compound, in test [3] (Total), the “Ease of removal from wounds” value was 10.6 +/− 1.4, the “Evaluation of biopsy wounds” value is 5.5 +/− 1.1, the Exudation came to 12.3 ± 1.1 µL and the Film transparency is 9.9 +/− 1.1. Besides, in test [3] (Total), the Flexibility is reported as 12.1 +/− 2.9, the Fluid accumulation was 10.1 +/− 1.2 and the Wound adherence is reported as 14.5 +/− 0.9. Also, in test [3] (rat, in vivo), the Period for epithelization was found to be 9.8 ± 0.8 days, the Scar formation is given as 1.3 +/− 0.4 Score and the “Time taken for complete wound closure” value was 19.6 ± 2.2 days. Further, in test [1], the “aldose reductase inhibition (in words)” value is listed as “effective aldose reductase inhibition” and the IC50 worked out at 160 µM. For the same compound, in test [2] (RBC under 30 mM glucose + 150 μM of esmolol), the “Sorbitol concentration in RBC” value is 16.16 µg/mL. For the same compound, the “NO increase, % Increase” value in test [4] worked out at 53%. For the same compound, the Collagen production in test [5] (Day 3) worked out at 124. Further, in test [5] (Day 7), the Collagen production amounted to 287. The same compound returned a Collagen production in test [5] (Day 12) of 325. For the same compound, in test [5] (Day 19), the Collagen production is listed as 288. In test [5] (Total), this compound had a Collagen production of 1024. In test [5] (total versus controls), the “Collagen production, % Increase” value was determined as 68%.
As for `CC(C)NCC(O)c1ccc(NS(C)(=O)=O)cc1` (centres unmarked) [Sotalol, sotalol hydrochloride], the half-maximal inhibitory concentration (IC50) in test [1] was greater than 350 µM.
On to `COc1ccccc1OCCNCC(O)COc1cccc2[nH]c3ccccc3c12` (centres unmarked) [Carvedilol, carvedilol], for which the IC50 in test [1] is greater than 350 µM.
Same read-out and setting: under `CC(CCc1ccccc1)NCC(O)c1ccc(O)c(C(N)=O)c1` (centres unmarked) [Labetalol, labetalol hydrochloride] stands greater than 350 µM.
Regarding `COCCc1ccc(OCC(O)CNC(C)C)cc1` (centres unmarked) [Metoprolol, metoprolol tartrate], in test [1], the IC50 was greater than 350 µM.
Turning to `CC(C)(C)NC[C@H](O)COc1nsnc1N1CCOCC1` [Timolol, timolol maleate], in test [1], the “aldose reductase inhibition (in words)” value is “effective aldose reductase inhibition” and the IC50 amounted to 250 µM. In test [2] (RBC under 30 mM glucose + 250 μM of timolol), the “Sorbitol concentration in RBC” value is 17.34 µg/mL.
